Laboratory results reported in US7262280B1, “G-protein fusion receptors and constructs encoding same” (NPS Pharmaceuticals, Inc., priority 1998, dated 2007).

Tests used:
Format in all cases: cell-based
mGluR8//CaR*Gαqi5 = biological target: T1, mGluR8//CaR*Gαqi5 (Homo sapiens, UniProt O00222); experiment: Calcium-activated chloride current in Xenopus oocytes injected with G-protein fusion receptor cRNA; details: 100 μM, Xenopus laevis oocytes, holding −60 mV, FIG. 15
T1 construct: ID; NO; 41; expressed in transfected cells; host or cells: Xenopus laevis oocytes injected with fusion receptor cRNA
T1 sequence (O00222 with tags, fused parts or gaps): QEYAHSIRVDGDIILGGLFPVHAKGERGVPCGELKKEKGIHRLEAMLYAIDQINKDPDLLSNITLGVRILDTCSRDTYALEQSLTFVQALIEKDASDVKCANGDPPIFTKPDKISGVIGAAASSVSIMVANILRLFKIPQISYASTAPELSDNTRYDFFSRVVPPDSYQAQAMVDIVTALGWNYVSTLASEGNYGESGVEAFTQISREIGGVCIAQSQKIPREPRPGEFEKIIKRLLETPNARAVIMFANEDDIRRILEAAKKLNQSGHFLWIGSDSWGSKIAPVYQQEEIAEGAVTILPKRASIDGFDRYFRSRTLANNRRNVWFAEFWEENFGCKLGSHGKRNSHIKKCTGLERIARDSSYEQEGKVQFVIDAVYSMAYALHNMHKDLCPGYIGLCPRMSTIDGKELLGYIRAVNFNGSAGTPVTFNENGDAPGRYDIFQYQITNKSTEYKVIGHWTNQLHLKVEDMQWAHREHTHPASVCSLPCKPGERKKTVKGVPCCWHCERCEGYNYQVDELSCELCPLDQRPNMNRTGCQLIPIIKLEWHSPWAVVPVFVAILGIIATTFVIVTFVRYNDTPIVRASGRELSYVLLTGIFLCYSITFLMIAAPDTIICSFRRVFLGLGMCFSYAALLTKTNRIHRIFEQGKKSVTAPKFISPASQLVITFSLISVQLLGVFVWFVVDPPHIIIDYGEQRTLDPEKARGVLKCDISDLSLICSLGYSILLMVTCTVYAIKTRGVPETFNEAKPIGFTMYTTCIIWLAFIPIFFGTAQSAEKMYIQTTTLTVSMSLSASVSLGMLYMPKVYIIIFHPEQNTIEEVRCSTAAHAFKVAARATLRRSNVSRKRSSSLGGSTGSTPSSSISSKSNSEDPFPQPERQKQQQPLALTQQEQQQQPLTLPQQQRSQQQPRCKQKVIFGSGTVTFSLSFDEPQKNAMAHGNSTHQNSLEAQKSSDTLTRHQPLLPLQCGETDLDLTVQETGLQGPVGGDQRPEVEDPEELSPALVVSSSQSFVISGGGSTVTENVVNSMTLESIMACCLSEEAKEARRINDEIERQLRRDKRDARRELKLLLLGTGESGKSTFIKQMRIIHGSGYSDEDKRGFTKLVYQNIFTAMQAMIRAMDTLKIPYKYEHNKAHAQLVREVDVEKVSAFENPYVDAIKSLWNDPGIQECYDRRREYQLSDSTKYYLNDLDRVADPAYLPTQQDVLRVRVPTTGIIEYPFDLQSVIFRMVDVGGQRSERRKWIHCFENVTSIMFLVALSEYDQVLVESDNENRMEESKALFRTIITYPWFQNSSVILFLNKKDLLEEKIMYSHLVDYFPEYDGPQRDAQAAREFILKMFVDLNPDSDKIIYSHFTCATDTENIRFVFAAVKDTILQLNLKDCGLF
Method: (§1) The different G-protein fusion receptors used in this example were as follows: mGluR2//CaR*Gqi5 (SEQ. ID. NO. 37), CaR/mGluR2*Gqi5 (SEQ. ID. NO. 33), and mGluR8//CaR*Gqi5 SEQ. ID. NO. 41.
(§2) Oocytes suitable for injection were obtained from adult female Xenopus laevis toads using procedures described in C. J. Marcus-Sekura and M. J. M. Hitchcock, Methods in Enzymology, Vol. 152 (1987).
(§3) Receptor fusion cRNAs were dissolved in water and 50 nl (12.5 ng/oocyte) were injected into individual oocytes. Following injection, oocytes were incubated at 16° C. in MBS containing 1 mM CaCl2 for two to seven days prior to electrophysiological recording.
(§4) Test substances were applied by superfusion at a flow rate of about 5 ml/minute. Receptor fusion activation was determined by measuring the increase in calcium-activated chloride current (ICl). Increases in ICl were quantified by measuring the peak inward current stimulated by activating agent, relative to the holding current at −60 mV. […] Application of 100 μM Gd^3+ activated the CaR/mGluR2*Gqi5.

mGluR2//CaR*Gαqi5 = mGluR2//CaR*Gαqi5 (Homo sapiens, UniProt Q14416, L8P); experiment: as above; details: 100 μM, Xenopus laevis oocytes, holding −60 mV, FIG. 15
mGluR2//CaR*Gαqi5, sequence (Q14416 with tags, fused parts or gaps L8P): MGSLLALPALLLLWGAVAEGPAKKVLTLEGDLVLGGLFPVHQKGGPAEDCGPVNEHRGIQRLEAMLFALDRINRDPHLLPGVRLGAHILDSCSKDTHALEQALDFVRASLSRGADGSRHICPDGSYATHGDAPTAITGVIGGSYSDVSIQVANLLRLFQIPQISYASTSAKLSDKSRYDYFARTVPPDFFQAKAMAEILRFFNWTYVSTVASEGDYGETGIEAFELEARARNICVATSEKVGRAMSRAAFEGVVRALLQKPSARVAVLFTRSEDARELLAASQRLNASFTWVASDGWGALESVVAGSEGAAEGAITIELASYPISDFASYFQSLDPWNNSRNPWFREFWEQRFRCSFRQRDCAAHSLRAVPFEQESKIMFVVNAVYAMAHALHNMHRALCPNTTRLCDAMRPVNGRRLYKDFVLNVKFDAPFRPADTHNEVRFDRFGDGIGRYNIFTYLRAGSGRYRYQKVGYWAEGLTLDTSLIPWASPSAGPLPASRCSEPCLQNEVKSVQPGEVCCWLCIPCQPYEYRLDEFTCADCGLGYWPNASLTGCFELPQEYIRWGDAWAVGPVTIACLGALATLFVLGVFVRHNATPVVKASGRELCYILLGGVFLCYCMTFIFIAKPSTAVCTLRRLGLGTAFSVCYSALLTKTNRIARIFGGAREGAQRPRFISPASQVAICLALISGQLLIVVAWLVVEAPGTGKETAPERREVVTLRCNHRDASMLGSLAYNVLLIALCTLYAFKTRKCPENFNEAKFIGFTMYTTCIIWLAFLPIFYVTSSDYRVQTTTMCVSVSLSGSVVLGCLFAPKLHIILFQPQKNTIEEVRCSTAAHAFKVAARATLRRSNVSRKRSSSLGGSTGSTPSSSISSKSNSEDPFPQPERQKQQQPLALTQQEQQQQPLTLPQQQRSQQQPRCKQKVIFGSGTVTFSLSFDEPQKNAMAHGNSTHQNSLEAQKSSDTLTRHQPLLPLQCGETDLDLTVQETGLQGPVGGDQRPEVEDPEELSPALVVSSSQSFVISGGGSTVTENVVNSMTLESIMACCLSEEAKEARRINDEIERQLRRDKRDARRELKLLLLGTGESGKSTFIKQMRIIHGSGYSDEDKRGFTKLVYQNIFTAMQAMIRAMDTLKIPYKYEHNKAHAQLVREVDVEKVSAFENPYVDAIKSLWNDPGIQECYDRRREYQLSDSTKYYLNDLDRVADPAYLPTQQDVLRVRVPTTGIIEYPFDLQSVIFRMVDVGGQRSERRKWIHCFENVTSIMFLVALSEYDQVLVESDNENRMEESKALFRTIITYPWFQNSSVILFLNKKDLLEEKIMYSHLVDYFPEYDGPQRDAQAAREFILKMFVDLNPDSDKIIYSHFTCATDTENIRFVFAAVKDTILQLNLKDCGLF

CaR/mGluR2*Gqi5 = biological target: T2, CaR/mGluR2*Gqi5 (Homo sapiens, UniProt P41180); experiment: as above; details: 100 μM, Xenopus laevis oocytes, holding −60 mV, FIG. 15
T2 construct: expressed in transfected cells; host or cells: Xenopus laevis oocytes injected with fusion receptor cRNA
T2 sequence (P41180 with tags, fused parts or gaps): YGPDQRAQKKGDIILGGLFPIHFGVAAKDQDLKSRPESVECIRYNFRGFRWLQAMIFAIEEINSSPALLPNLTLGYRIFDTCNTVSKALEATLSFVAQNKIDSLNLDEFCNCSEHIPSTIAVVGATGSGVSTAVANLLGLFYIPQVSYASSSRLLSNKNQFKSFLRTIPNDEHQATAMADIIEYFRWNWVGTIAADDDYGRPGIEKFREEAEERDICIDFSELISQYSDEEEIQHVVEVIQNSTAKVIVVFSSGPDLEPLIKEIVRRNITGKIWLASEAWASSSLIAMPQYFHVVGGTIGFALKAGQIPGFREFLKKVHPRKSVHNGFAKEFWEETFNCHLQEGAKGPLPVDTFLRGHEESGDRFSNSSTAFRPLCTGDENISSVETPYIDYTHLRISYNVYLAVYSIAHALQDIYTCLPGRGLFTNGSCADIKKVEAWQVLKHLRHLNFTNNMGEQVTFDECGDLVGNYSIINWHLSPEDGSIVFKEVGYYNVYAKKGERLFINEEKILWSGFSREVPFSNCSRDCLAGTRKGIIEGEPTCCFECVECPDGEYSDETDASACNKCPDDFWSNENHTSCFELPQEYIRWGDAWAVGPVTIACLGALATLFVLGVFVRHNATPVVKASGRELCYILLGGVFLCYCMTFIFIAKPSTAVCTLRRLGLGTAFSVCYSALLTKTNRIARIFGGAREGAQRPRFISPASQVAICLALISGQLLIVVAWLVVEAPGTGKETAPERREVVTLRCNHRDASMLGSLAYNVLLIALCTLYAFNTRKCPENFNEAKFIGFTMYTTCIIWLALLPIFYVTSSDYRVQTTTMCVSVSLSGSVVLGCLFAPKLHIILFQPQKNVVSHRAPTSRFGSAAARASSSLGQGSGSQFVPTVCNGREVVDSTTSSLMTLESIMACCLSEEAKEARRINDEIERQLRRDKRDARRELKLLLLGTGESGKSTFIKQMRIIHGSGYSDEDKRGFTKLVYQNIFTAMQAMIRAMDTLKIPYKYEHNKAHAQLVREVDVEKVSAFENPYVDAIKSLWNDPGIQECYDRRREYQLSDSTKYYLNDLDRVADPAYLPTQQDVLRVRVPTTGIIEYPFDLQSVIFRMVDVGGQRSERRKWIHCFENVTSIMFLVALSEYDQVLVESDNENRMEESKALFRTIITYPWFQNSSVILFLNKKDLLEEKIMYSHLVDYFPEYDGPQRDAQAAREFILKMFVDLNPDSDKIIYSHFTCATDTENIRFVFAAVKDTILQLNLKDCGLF
Method: as §1, §2, §3, §4

[1] = biological target: T3, chimeric CaR/GABABR2 (CaR extracellular and transmembrane domains, and intracellular GABABR2 domain) (Homo sapiens, UniProt O75899+P41180); experiment: Calcium-activated chloride current in Xenopus oocytes co-injected with chimeric CaR/GABABR2 RNA and Gα15 RNA; details: 100 μM, voltage-clamped, 72-hour incubation, FIG. 8
T3 construct: chimeric CaR/GABABR2 (CaR extracellular and transmembrane domains, and intracellular GABABR2 domain); GABABR2 intracellular domain (fusion partner replacing the CaR tail); expressed in transfected cells; host or cells: Xenopus oocytes injected with in vitro-transcribed RNA
T3 sequence (P41180+O75899 with tags, fused parts or gaps): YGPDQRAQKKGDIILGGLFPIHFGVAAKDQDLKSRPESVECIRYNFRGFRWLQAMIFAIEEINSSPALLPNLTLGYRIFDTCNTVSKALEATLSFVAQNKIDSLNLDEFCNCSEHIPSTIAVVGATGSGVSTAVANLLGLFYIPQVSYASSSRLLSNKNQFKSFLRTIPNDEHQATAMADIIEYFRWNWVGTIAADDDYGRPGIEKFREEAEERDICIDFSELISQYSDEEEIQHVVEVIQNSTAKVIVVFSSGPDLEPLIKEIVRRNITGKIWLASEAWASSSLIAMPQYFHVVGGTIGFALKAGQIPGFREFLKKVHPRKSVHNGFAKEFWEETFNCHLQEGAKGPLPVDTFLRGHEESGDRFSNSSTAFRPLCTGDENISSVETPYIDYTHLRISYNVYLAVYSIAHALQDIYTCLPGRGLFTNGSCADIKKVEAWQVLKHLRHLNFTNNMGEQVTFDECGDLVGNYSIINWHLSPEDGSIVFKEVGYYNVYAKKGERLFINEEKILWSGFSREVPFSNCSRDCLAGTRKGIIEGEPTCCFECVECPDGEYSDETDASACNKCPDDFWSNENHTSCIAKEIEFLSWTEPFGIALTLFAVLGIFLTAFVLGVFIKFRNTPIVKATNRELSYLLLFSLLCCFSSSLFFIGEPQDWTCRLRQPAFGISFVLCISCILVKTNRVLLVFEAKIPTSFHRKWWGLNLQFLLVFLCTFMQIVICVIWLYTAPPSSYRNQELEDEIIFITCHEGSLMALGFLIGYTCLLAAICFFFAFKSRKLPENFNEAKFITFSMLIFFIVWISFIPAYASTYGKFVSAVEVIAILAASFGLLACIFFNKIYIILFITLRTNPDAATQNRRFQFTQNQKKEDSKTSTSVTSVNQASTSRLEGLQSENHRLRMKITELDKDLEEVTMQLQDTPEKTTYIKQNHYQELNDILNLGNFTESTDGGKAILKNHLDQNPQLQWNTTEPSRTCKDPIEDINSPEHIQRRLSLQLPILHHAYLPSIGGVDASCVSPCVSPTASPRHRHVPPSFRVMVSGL
Method: FIG. 8 illustrates the ability of a chimeric CaR/GABABR2 (CaR extracellular and transmembrane domains, and intracellular GABABR2 domain) to transduce a signal. Signal production was measured by detecting an increase in the calcium-activated chloride current. The line in the middle of the increase signifies a wash step.
In vitro-transcribed RNA (7 ng) encoding a chimeric CaR/GABABR2 (CaR extracellular and transmembrane domains, and intracellular GABABR2 domain) was co-injected with in vitro-transcribed RNA (2 ng) encoding Gα15 into Xenopus oocytes. Following a 72-hour incubation, the oocytes were voltage-clamped using standard electrophysiological techniques (B. Hille, Ionic Channels of Exictable Membranes, pp. 30-33, Sinauer Associates, Inc., Sunderland, Ma., 1992). Activation of the chimeric receptor was detected by increases in the calcium-activated chloride current.
In this assay, the Gα15 subunit acts to promote signal transduction through intracellular pathways that mobilize intracellular Ca^++.

| receptor fusion activation, increase in calcium-activated chloride current (ICl) (CaR/mGluR2*Gqi5) | Compound | receptor fusion activation, increase in calcium-activated chloride current (ICl) (mGluR8//CaR*Gαqi5) | receptor fusion activation, increase in calcium-activated chloride current (ICl) (mGluR2//CaR*Gαqi5) | activation of the chimeric receptor detected by increases in the calcium-activated chloride current [1] |
| --- | --- | --- | --- | --- |
| – | N[C@@H](CCC(=O)O)C(=O)O [L-glutamate] | elicited a response | elicited a response | – |
| activated | [Gd+3] [Gd^3+] | – | – | reversible, oscillatory increases in the calcium-activated chloride current |
